Assays:
mitochondrial pH [1] = details: same cell type given the same drug in a dish
mitochondrial pH [2] = details: BALB/cJ mouse, subcutaneous tumor expressing mito-pH-Countdown, before vs after administration of BAM15
Text: Left panel: Raw time lapse animation (grayscale) of the back of a BALB/cJ mouse carrying a subcutaneous tumor expressing mito-pH-Countdown, measured in the GFP channel of a simple fluorescence photography system. […] Orange/blue/green box marks a region expressing mito-pH-Countdown. Right panel: Average fluorescent signal vs. time for two measurements before(orange, dots) and two measurements after (blue or green, triangles) administration of the mitochondrial uncoupler BAM15. […] Light gray lines show calibration measurements for pH 7.5 (solid) and pH 8 (dashed).

Fc1ccccc1Nc1nc2nonc2nc1Nc1ccccc1F [BAM15]
shift in mitochondrial pH (mitochondrial pH [1]): ~1 pH unit
drug-induced shift in mitochondrial pH (mitochondrial pH [2]): roughly 0.2 pH units
